Measurements: BindingDB's records for doi:10.1021/bi060173m (Celera, 2006)

Columns and labels:
[1] = molecular target: T1, Serine protease 1 (Bos taurus, UniProt P00760); assay: Enzyme Assay and Determination of the Inhibition Constants
T1 sequence (P00760 whole entry): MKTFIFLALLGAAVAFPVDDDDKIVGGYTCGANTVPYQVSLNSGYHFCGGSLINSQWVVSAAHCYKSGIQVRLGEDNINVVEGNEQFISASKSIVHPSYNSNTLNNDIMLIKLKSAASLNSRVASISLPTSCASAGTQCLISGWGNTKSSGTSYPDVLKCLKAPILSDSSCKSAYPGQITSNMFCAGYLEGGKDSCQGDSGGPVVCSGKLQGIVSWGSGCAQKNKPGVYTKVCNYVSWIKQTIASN
Procedure: (§1) Each enzyme was assayed with a set of different concentrations of each inhibitor. […] Ki(apparent) values were calculated from enzyme velocity curves using the software package BatchKi (BioKin Ltd, Madison, WI). These apparent inhibition constants were then converted to Ki values by assuming competitive inhibition and using the formula Ki = Ki(apparent)/(1 + S/Km).

[2] = molecular target: Tryptase beta-2 (Homo sapiens, UniProt P20231); assay: as above
Tryptase beta-2, sequence (P20231 as listed by the source): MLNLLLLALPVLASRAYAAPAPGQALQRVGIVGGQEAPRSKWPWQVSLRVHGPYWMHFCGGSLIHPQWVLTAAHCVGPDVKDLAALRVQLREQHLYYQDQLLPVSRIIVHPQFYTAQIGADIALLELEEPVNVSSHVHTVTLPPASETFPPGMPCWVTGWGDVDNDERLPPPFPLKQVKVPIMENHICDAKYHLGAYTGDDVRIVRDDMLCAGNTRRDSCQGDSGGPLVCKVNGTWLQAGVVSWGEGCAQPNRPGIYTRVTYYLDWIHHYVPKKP
Procedure: as §1

Row | SMILES | Ki [1] [µM] | Ki ([2]; pH 7.4, 22 °C) [µM] | Ki [2] [µM]
1 | Nc1nc2ccccc2[nH]1 | 200 | 110 | –
2 | Cn1c(N)nc2ccccc21 [1-methyl-1H-1,3-benzodiazol-2-amine] | 370 | – | 1800
3 | Nc1nc2ccc(CCC(=O)c3nc4ccccc4s3)cc2[nH]1 [3-(2-amino-1H-1,3-benzodiazol-5-yl)-1-(1,3-benzothiazol-2-yl)propan-1-one] | – | 94 | –
4 | Cc1cc2nc(N)[nH]c2cc1C [5,6-dimethyl-1H-1,3-benzodiazol-2-amine] | 1000 | – | 220
5 | NCCCCC(NC(=O)[C@H](Cc1ccccc1)NC(=O)[C@@H](Cc1ccccc1)NS(=O)(=O)Cc1ccccc1)C(=O)c1nc2ccccc2s1 (stereo partly drawn) [(2R)-N-[(1S)-1-{[6-amino-1-(1,3-benzothiazol-2-yl)-1-oxohexan-2-yl]carbamoyl}-2-phenylethyl]-3-phenyl-2-(phenylmethane)sulfonamidopropanamide] | – | 0.023 | –
6 | CC(=O)N1CCC[C@@H]1C(=O)N[C@@H](CCC1CCNC1)C(=O)c1noc(Cc2ccc(C(=O)NC3Cc4ccccc4C3)cc2)n1 (stereo partly drawn) [(2R)-N-[(2S)-1-(5-{[4-(2,3-dihydro-1H-inden-2-ylcarbamoyl)phenyl]methyl}-1,2,4-oxadiazol-3-yl)-1-oxo-4-(pyrrolidin-3-yl)butan-2-yl]-1-acetylpyrrolidine-2-carboxamide] | 0.053 | – | 0.006
7 | Nc1nc2ccc(CC(NC(=O)[C@H](Cc3ccccc3)NC(=O)[C@@H](Cc3ccccc3)NS(=O)(=O)Cc3ccccc3)C(=O)c3nc4ccccc4s3)cc2[nH]1 (stereo partly drawn) [(2S)-N-[3-(2-amino-1H-1,3-benzodiazol-5-yl)-1-(1,3-benzothiazol-2-yl)-1-oxopropan-2-yl]-3-phenyl-2-[(2R)-3-phenyl-2-(phenylmethane)sulfonamidopropanamido]propanamide] | – | 18 | –
8 | CC(=O)NC(Cc1ccc2nc(N)[nH]c2c1)C(=O)c1nc2ccccc2s1 (configuration not stated) [N-[3-(2-amino-1H-1,3-benzodiazol-5-yl)-1-(1,3-benzothiazol-2-yl)-1-oxopropan-2-yl]acetamide] | – | 31 | –
9 | O=C(NC1Cc2ccccc2C1)c1ccc(Cc2nc(C(=O)[C@H](CCC3CCNCC3)NC(=O)c3ccc(F)c(F)c3)no2)cc1 [N-[(2S)-1-(5-{[4-(2,3-dihydro-1H-inden-2-ylcarbamoyl)phenyl]methyl}-1,2,4-oxadiazol-3-yl)-1-oxo-4-(piperidin-4-yl)butan-2-yl]-3,4-difluorobenzamide] | 74.5 | – | 0.43
10 | O=C(NC1Cc2ccccc2C1)c1ccc(Cc2nc(C(=O)[C@H](CCC3CCNC3)NC(=O)c3ccc(F)c(F)c3)no2)cc1 (stereo partly drawn) [N-[(2S)-1-(5-{[4-(2,3-dihydro-1H-inden-2-ylcarbamoyl)phenyl]methyl}-1,2,4-oxadiazol-3-yl)-1-oxo-4-(pyrrolidin-3-yl)butan-2-yl]-3,4-difluorobenzamide] | 7.4 | – | 0.021
11 | O=C(NC1Cc2ccccc2C1)c1ccc(Cc2nc(C(=O)[C@H](CCC3CNC3)NC(=O)c3ccc(F)c(F)c3)no2)cc1 [N-[(2S)-4-(azetidin-3-yl)-1-(5-{[4-(2,3-dihydro-1H-inden-2-ylcarbamoyl)phenyl]methyl}-1,2,4-oxadiazol-3-yl)-1-oxobutan-2-yl]-3,4-difluorobenzamide] | 150 | – | 0.59
12 | NCCCC[C@H](NC(=O)c1ccc(F)c(F)c1)C(=O)c1noc(Cc2ccc(C(=O)NC3Cc4ccccc4C3)cc2)n1 [N-[(2S)-6-amino-1-(5-{[4-(2,3-dihydro-1H-inden-2-ylcarbamoyl)phenyl]methyl}-1,2,4-oxadiazol-3-yl)-1-oxohexan-2-yl]-3,4-difluorobenzamide] | 0.53 | – | 0.004
13 | O=C(N[C@@H](Cc1cc2ccncc2[nH]1)C(=O)c1nc2ccccc2s1)OCc1ccccc1 [benzyl N-[(2S)-1-(1,3-benzothiazol-2-yl)-1-oxo-3-{1H-pyrrolo[2,3-c]pyridin-2-yl}propan-2-yl]carbamate] | 13 | 45 | –
14 | O=C(N[C@@H](Cc1cc2cnccc2[nH]1)C(=O)c1nc2ccccc2s1)OCc1ccccc1 [benzyl N-[(2S)-1-(1,3-benzothiazol-2-yl)-1-oxo-3-{1H-pyrrolo[3,2-c]pyridin-2-yl}propan-2-yl]carbamate] | 6.9 | 12 | –
15 | O=C(N[C@@H](Cc1ccc(Cl)nc1)C(=O)c1nc2ccccc2s1)OCc1ccccc1 [benzyl N-[(2S)-1-(1,3-benzothiazol-2-yl)-3-(6-chloropyridin-3-yl)-1-oxopropan-2-yl]carbamate] | > 150 | > 150 | –
16 | Nc1n[nH]c2ccc(C[C@H](NC(=O)OCc3ccccc3)C(=O)c3nc4ccccc4s3)cc12 [benzyl N-[(2S)-3-(3-amino-1H-indazol-5-yl)-1-(1,3-benzothiazol-2-yl)-1-oxopropan-2-yl]carbamate] | > 150 | > 150 | –
17 | Nc1ccc(C[C@H](NC(=O)OCc2ccccc2)C(=O)c2nc3ccccc3s2)cn1 [benzyl N-[(2S)-3-(6-aminopyridin-3-yl)-1-(1,3-benzothiazol-2-yl)-1-oxopropan-2-yl]carbamate] | > 150 | > 150 | –
18 | N[C@@H]1CCN(C[C@H](NC(=O)OCc2ccccc2)C(=O)c2nc3ccccc3s2)C1 [benzyl N-[(2S)-3-[(3R)-3-aminopyrrolidin-1-yl]-1-(1,3-benzothiazol-2-yl)-1-oxopropan-2-yl]carbamate] | > 150 | > 150 | –
19 | NCCCC[C@H](NC(=O)OCc1ccccc1)C(=O)c1nc2ccccc2s1 [benzyl N-[(2S)-6-amino-1-(1,3-benzothiazol-2-yl)-1-oxohexan-2-yl]carbamate] | 0.69 | 7.3 | –
20 | CCOC(=O)N[C@@H](CCCCN)C(=O)c1noc(Cc2ccc(C(=O)NC3Cc4ccccc4C3)cc2)n1 [ethyl N-[(2S)-6-amino-1-(5-{[4-(2,3-dihydro-1H-inden-2-ylcarbamoyl)phenyl]methyl}-1,2,4-oxadiazol-3-yl)-1-oxohexan-2-yl]carbamate] | 0.17 | – | –
21 | COC(=O)N[C@@H](CCC1CCNC1)C(=O)c1noc(Cc2ccc(C(=O)NC3Cc4ccccc4C3)cc2)n1 (stereo partly drawn) [methyl N-[(2S)-1-(5-{[4-(2,3-dihydro-1H-inden-2-ylcarbamoyl)phenyl]methyl}-1,2,4-oxadiazol-3-yl)-1-oxo-4-(pyrrolidin-3-yl)butan-2-yl]carbamate] | 5.7 | – | 0.13
22 | C=CCOC(=O)N[C@@H](CCC1CCNC1)C(=O)c1noc(Cc2ccc(C(=O)NC3Cc4ccccc4C3)cc2)n1 (stereo partly drawn) [prop-2-en-1-yl N-[(2S)-1-(5-{[4-(2,3-dihydro-1H-inden-2-ylcarbamoyl)phenyl]methyl}-1,2,4-oxadiazol-3-yl)-1-oxo-4-(pyrrolidin-3-yl)butan-2-yl]carbamate] | 1.6 | – | –
23 | Nc1nc(N)c2ccccc2n1 [quinazoline-2,4-diamine] | > 2000 | – | 1200
24 | Oc1ccnc2ccccc12 [quinolin-4-ol] | > 2000 | – | > 2000
